Experimental data published in US9481610B2, “Use of a fertilizer containing L-amino acid for improving root growth and growth of mycorrhiza” (SweTree Technologies AB, priority 2007, dated 2016).

Assays:
Arabidposis thaliana = assay: Growth and allocation of biomass as affected by nitrogen form in Arabidopsis; type: in vivo; conditions: sterile culture 21 days, total nitrogen 6 mM
Scots pine roots = assay: Evaluation of mycorrhiza of Scots pine roots (chitin content); type: in vivo; conditions: fertilization with arginine

O=[N+]([O-])O [nitrate]
Root fraction (Arabidposis thaliana): 0.12 | Total biomass (Arabidposis thaliana): 4.63

N=C(N)NCCC[C@H](N)C(=O)O [L-Arginine]
chitin content of roots versus reference (in words) (Scots pine roots): substantially higher content of chitin in roots
